Results: patent EP3807270B1, “NOVEL HETEROARYL HETEROCYCLYL COMPOUNDS FOR THE TREATMENT OF AUTOIMMUNE DISEASE” (F. Hoffmann-La Roche AG, priority 2018, dated 2019)

Experiments:
CYP2D6 = target: T1, CYP2D6 (Homo sapiens, UniProt P10635); assay: CYP inhibition assay in human liver microsome; type: in vitro ADME; conditions: human liver microsomes, probe dextromethorphan, 10µM test compound, dextromethorphan substrate, <0: not or weak inhibitor, read-out: CYP 2D6 inhibition %@10µM
T1 construct: tissue BD-Gentest 452117; host or cells: human liver microsomes
Procedure, shortened: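 HLM mixed with CYP2D6 substrate, preincubated 10 min at 37 °C, started with NADPH regenerating system and run 10 min at 37 °C before acetonitrile quench. Metabolite measured by RapidFire MS/MS against D3-dextrorphan internal standard. % inhibition scaled between DMSO and concentrated-inhibitor controls.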

hTLR9 = target: T2, hTLR9 (Homo sapiens, UniProt Q9NR96); assay: HEK293-Blue-hTLR-9 cells assay (SEAP reporter, ODN2006 stimulation); type: cell-based; parameters: host or cells: HEK293 (HEK-Blue); conditions: HEK293-Blue-hTLR9 cells, ODN2006, 20 hrs; read-out: HEK/hTLR9 IC50
T2 sequence (Q9NR96 26-1032): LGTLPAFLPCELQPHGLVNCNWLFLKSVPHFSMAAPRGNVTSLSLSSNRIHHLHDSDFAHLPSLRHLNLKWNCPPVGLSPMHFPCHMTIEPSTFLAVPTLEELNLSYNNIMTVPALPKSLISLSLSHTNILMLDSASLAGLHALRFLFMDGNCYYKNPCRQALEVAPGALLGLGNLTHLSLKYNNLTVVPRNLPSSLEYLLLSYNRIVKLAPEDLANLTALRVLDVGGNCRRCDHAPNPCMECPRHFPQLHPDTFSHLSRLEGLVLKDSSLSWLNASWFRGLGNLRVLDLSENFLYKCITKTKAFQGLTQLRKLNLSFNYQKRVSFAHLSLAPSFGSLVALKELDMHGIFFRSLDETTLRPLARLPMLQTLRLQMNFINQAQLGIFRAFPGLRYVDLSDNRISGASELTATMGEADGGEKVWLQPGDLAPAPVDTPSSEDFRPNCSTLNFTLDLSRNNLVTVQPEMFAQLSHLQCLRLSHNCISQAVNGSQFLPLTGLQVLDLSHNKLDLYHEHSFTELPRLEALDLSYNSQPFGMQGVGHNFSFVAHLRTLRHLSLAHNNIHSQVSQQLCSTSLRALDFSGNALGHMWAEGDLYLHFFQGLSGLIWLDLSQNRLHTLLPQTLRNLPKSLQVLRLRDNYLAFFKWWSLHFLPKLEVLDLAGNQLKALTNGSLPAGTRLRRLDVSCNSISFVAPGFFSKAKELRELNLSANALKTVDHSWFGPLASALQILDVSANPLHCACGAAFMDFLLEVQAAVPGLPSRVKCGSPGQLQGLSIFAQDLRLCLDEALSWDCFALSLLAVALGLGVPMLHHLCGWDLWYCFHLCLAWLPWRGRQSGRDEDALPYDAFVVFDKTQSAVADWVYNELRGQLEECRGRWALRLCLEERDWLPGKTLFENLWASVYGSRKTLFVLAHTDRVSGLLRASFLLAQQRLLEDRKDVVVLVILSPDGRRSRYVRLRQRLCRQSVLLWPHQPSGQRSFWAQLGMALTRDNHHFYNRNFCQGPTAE
Procedure, shortened: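 HEK293-Blue-hTLR9 cells (250,000-450,000 cells/mL) in DMEM with 10% FBS were treated with serially diluted compound (1% DMSO final) plus ODN2006 for 20 hrs at 37 °C. Supernatant SEAP activity was measured with QUANTI-Blue substrate for 2 hrs at 37 °C, reading absorbance at 620-655 nm.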

T1 sequence (P10635 whole entry): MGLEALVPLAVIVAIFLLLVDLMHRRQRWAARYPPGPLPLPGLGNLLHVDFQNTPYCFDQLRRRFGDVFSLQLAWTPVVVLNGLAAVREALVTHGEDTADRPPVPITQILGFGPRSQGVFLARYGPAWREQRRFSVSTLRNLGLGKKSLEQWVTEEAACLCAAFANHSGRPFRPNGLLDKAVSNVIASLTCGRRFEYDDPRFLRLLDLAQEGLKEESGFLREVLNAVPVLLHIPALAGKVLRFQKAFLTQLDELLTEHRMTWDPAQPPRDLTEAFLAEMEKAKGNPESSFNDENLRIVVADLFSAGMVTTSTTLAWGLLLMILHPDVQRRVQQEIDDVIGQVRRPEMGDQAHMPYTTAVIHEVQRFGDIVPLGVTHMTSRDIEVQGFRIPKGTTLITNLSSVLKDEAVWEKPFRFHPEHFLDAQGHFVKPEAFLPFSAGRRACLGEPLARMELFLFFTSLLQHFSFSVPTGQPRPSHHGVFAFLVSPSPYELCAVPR

Structure (SMILES) | inhibition at 10 min, 10 µM (CYP2D6) [%] | IC50 (hTLR9) [nM]
C[C@@H]1CN(c2ccc(C#N)c3ncccc23)C[C@H](CN2CCN(c3ccc4c(n3)CNCC4)CC2)O1 [Example 69, 5-[(2R,6S)-2-methyl-6-[[4-(5,6,7,8-tetrahydro-1,7-naphthyridin-2-yl)piperazin-1-yl]methyl]morpholin-4-yl]quinoline-8-carbonitrile] | 8.5 | 83
C[C@@H]1CN(c2ccc(C#N)c3nccnc23)C[C@H](CN2CCN(c3cc4c(cn3)CCNC4)CC2)O1 [Example 80, 8-[(2R,6S)-2-methyl-6-[[4-(5,6,7,8-tetrahydro-2,6-naphthyridin-3-yl)piperazin-1-yl]methyl]morpholin-4-yl]quinoxaline-5-carbonitrile] | 7 | 100
